From patent publication US20210369680A1, “METHODS OF TREATING DISEASES AND DISORDERS RESULTING FROM BETA CORONAVIRUS INFECTION” (T3D Therapeutics, Inc., priority 2020, published 2021)

Key:
P-glycoprotein (P-gp) = target: T1, P-glycoprotein (P-gp) (Homo sapiens, UniProt P08183); test: Effect of P-gp inhibitor verapamil on Caco-2 permeability; assay type: in vitro ADME
T1 construct: endogenous in cells; host or cells: Caco-2 cells
Excerpt: Example 18: Effect of P-gp Inhibitor Verapamil on Caco-2 Permeability of Compound of Example 11

human PPARα = target: T2, human PPARα (Homo sapiens, UniProt Q07869); test: Human PPAR activation, transient transfection study in transfected CV-1 cells; assay type: cell-based
T2 construct: expressed in transfected cells; host or cells: CV-1 cells
T2 sequence (Q07869 1-468): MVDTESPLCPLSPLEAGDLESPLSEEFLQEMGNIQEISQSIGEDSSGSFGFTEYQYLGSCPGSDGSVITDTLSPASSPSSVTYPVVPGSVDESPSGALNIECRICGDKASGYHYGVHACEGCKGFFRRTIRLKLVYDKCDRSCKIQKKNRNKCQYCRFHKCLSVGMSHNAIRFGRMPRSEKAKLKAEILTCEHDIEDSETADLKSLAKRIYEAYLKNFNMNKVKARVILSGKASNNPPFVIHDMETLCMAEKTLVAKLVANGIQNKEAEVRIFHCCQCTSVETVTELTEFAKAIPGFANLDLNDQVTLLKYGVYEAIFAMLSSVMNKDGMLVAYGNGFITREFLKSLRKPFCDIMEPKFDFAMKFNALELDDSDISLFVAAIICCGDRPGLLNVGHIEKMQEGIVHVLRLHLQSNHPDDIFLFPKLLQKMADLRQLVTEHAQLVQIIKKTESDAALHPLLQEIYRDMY
Excerpt: (§1) Human PPAR Activation by Compound of Example 11 in Transient Transfection Study
(§2) Table 2 summarizes the results of studies performed in transfected CV-1 cells with three different lots of Compound of Example 11. […].

human PPARγ = target: T3, human PPARγ (Homo sapiens, UniProt P37231); test: as above; assay type: cell-based
T3 construct: expressed in transfected cells; host or cells: CV-1 cells
T3 sequence (P37231 1-505): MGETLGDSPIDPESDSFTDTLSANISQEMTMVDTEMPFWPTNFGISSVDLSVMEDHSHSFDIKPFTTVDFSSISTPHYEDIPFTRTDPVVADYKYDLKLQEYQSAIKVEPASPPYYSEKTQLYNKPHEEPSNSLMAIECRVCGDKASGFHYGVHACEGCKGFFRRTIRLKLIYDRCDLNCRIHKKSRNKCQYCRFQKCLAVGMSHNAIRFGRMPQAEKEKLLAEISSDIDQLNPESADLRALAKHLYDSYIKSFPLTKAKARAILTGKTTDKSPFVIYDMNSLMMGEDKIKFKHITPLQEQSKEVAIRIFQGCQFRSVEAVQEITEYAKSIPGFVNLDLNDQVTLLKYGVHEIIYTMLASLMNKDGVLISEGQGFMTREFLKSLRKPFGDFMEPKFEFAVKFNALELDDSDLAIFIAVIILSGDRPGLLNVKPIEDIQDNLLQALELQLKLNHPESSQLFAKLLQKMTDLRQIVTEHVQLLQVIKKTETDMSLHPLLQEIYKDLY
Excerpt: as §1, §2

T1 sequence (P08183 whole entry): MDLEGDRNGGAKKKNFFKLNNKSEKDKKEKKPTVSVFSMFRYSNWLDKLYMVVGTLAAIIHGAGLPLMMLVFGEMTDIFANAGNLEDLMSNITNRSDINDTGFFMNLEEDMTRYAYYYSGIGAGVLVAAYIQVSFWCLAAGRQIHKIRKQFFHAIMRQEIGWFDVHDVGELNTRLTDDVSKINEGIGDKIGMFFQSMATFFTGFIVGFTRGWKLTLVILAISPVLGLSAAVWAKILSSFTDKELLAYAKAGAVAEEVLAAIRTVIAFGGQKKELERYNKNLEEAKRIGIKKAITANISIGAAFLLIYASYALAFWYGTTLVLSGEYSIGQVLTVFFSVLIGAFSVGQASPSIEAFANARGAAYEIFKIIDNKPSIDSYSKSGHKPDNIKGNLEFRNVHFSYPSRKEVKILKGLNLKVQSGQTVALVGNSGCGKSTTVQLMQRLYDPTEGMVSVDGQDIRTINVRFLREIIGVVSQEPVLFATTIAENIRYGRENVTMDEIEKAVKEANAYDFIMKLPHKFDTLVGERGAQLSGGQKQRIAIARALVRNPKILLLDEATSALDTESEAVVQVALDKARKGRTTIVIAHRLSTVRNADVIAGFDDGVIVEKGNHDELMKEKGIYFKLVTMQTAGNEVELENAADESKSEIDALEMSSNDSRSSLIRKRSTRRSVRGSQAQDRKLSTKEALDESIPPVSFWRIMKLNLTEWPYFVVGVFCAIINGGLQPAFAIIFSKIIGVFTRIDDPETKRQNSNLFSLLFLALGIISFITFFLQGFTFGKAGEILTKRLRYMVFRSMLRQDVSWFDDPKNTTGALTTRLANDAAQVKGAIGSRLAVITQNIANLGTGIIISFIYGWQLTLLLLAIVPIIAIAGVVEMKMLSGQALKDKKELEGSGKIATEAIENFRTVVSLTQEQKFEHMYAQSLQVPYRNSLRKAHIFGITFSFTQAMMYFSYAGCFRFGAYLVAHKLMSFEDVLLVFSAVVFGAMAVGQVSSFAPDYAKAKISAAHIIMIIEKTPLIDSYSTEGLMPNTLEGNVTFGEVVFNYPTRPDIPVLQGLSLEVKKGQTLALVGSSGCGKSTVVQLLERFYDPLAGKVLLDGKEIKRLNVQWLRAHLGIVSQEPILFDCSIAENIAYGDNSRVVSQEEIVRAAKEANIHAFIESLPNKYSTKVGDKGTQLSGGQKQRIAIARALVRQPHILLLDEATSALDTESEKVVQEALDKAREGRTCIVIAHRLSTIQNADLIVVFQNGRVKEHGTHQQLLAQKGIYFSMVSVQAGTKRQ

CCc1oc(-c2ccc(OC)cc2)nc1CCOc1ccc2c(c1)CC[C@H]2CC(=O)[O-].[Na+] [Example 11, Sodium (S)-2-(5-(2-(5-ethyl-2-(4-methoxyphenyl)oxazol-4-yl)ethoxy)-2,3-dihydro-1H-inden-1-yl)acetate]
substrate for P-gp (P-glycoprotein (P-gp)): not a substrate
Peak effect PPARα (human PPARα): 1.87
Emax (human PPARα; CV-1, average of three lots, read-out: Average % maximal response PPARα): 49%
Average % maximal response PPARα (human PPARα; average of three lots): significantly reduced
Peak effect PPARγ (human PPARγ): 29.49
Emax (human PPARγ; CV-1, read-out: Average % maximal response PPARγ): 74%
